Laboratory results taken from PubChem BioAssay AID256 (DTP/NCI, 2004).
Where “and” joins values, the source holds several entries; their conditions need not be identical. Equal values may be shown once. Toxic doses and inconclusive results are not listed.

System: CD2F1 mice, L1210 leukemia ip, survival T/C
Experiment: NCI In Vivo Anticancer Drug Screen. Data for tumor model L1210 Leukemia (intraperitoneal) in CD2F1 (CDF1) mice
Conditions: higher = longer survival
In short: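 Transplantable tumor in mice; compound-treated vs vehicle-treated groups. Read-out = treated/control ratio of the measured endpoint.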

[1] = endpoint: mean survival time, dose: 100.0 mg/kg/injection, schedule: Q04DX003 (ip), vehicle: saline
[2] = endpoint: mean survival time, dose: 200.0 mg/kg/injection, schedule: Q04DX003 (ip), vehicle: saline
[3] = endpoint: mean survival time, dose: 400.0 mg/kg/injection, schedule: Q04DX003 (ip), vehicle: saline
[4] = endpoint: mean survival time, dose: 100.0 mg/kg/injection, schedule: Q04DX003 (ip), vehicle: saline with Tween-80
[5] = endpoint: mean survival time, dose: 200.0 mg/kg/injection, schedule: Q04DX003 (ip), vehicle: saline with Tween-80
[6] = endpoint: mean survival time, dose: 400.0 mg/kg/injection, schedule: Q04DX003 (ip), vehicle: saline with Tween-80
[7] = endpoint: mean survival time, dose: 25.0 mg/kg/injection, schedule: Q01DX009 (ip), vehicle: Klucel (hydroxypropylcellulose) (HPC)
[8] = endpoint: mean survival time, dose: 50.0 mg/kg/injection, schedule: Q01DX009 (ip), vehicle: Klucel (hydroxypropylcellulose) (HPC)
[9] = endpoint: mean survival time, dose: 50.0 mg/kg/injection, schedule: Q01DX009 (ip), vehicle: saline with Tween-80
[10] = endpoint: mean survival time, dose: 100.0 mg/kg/injection, schedule: Q01DX009 (ip), vehicle: saline with Tween-80
[11] = endpoint: mean survival time, dose: 200.0 mg/kg/injection, schedule: Q01DX009 (ip), vehicle: saline with Tween-80
[12] = endpoint: mean survival time, dose: 400.0 mg/kg/injection, schedule: Q01DX009 (ip), vehicle: saline with Tween-80
[13] = endpoint: mean survival time, dose: 50.0 mg/kg/injection, schedule: Q01DX009 (ip), vehicle: other
[14] = endpoint: mean survival time, dose: 100.0 mg/kg/injection, schedule: Q01DX009 (ip), vehicle: other
[15] = endpoint: mean survival time, dose: 200.0 mg/kg/injection, schedule: Q01DX009 (ip), vehicle: other
[16] = endpoint: mean survival time, dose: 100.0 mg/kg/injection, schedule: Q01DX001 (ip), vehicle: saline with Tween-80
[17] = endpoint: mean survival time, dose: 200.0 mg/kg/injection, schedule: Q01DX001 (ip), vehicle: saline with Tween-80
[18] = endpoint: mean survival time, dose: 400.0 mg/kg/injection, schedule: Q01DX001 (ip), vehicle: saline with Tween-80

CSc1cc(N)nc2c1nnn2C1OC(CO)C(O)C1O (configuration not stated)
T/C (endpoint: mean survival time, dose: 12.5 mg/kg/injection, schedule: Q01DX005 (ip), vehicle: water): 94 % of control
T/C (endpoint: mean survival time, dose: 25.0 mg/kg/injection, schedule: Q01DX005 (ip), vehicle: water): 100 % of control
T/C (endpoint: mean survival time, dose: 50.0 mg/kg/injection, schedule: Q01DX005 (ip), vehicle: water): 95 % of control
T/C (endpoint: mean survival time, dose: 100.0 mg/kg/injection, schedule: Q01DX005 (ip), vehicle: water): 90 % of control
T/C (endpoint: mean survival time, dose: 200.0 mg/kg/injection, schedule: Q01DX005 (ip), vehicle: water): 87 % of control

O=[N+]([O-])c1ccc(O)c(N=Cc2ccccc2O)c1
T/C (endpoint: mean survival time, dose: 100.0 mg/kg/injection, schedule: Q04DX002 (ip), vehicle: Klucel (hydroxypropylcellulose) (HPC)): 105 % of control
T/C (endpoint: mean survival time, dose: 200.0 mg/kg/injection, schedule: Q04DX002 (ip), vehicle: Klucel (hydroxypropylcellulose) (HPC)): 97 % of control
T/C (endpoint: mean survival time, dose: 400.0 mg/kg/injection, schedule: Q04DX002 (ip), vehicle: Klucel (hydroxypropylcellulose) (HPC)): 97 % of control

OC1OCCOC1O (configuration not stated)
T/C (endpoint: mean survival time, dose: 100.0 mg/kg/injection, schedule: Q01DX009 (ip), vehicle: saline): 114 % of control
T/C [1]: 99 % of control
T/C (endpoint: mean survival time, dose: 200.0 mg/kg/injection, schedule: Q01DX009 (ip), vehicle: saline): 114 % of control
T/C [2]: 99 % of control
T/C (endpoint: mean survival time, dose: 400.0 mg/kg/injection, schedule: Q01DX009 (ip), vehicle: saline): 121 % of control
T/C [3]: 115 % of control

CC(Nc1ccccc1C(=O)O)C(=O)O (configuration not stated)
T/C [4]: 102 % of control
T/C [5]: 104 % of control
T/C [6]: 104 % of control

NC(=O)COc1c(I)cc(I)cc1I
T/C (endpoint: mean survival time, dose: 100.0 mg/kg/injection, schedule: Q01DX009 (ip), vehicle: saline sonified): 101 % of control
T/C [4]: 98 % of control
T/C (endpoint: mean survival time, dose: 200.0 mg/kg/injection, schedule: Q01DX009 (ip), vehicle: saline sonified): 92 % of control
T/C [5]: 98 % of control
T/C (endpoint: mean survival time, dose: 400.0 mg/kg/injection, schedule: Q01DX009 (ip), vehicle: saline sonified): 89 % of control
T/C [6]: 96 % of control

Cc1cnc(/C=N\NC(N)=S)c2cccc(N)c12
T/C (endpoint: mean survival time, dose: 3.13 mg/kg/injection, schedule: Q01DX009 (ip), vehicle: Klucel (hydroxypropylcellulose) (HPC)): 124 % of control
T/C (endpoint: mean survival time, dose: 3.13 mg/kg/injection, schedule: Q01DX009 (ip), vehicle: saline with Tween-80): 122 % of control
T/C (endpoint: mean survival time, dose: 5.4 mg/kg/injection, schedule: Q03HX024 (ip), vehicle: Klucel (hydroxypropylcellulose) (HPC)): 123 % of control
T/C (endpoint: mean survival time, dose: 8.0 mg/kg/injection, schedule: Q03HX024 (ip), vehicle: Klucel (hydroxypropylcellulose) (HPC)): 151 % of control
T/C (endpoint: mean survival time, dose: 12.0 mg/kg/injection, schedule: Q03HX024 (ip), vehicle: Klucel (hydroxypropylcellulose) (HPC)): 112 % of control
T/C [7]: 168 % of control
T/C [8]: 89 % of control
T/C (endpoint: median survival time, dose: 3.89 mg/kg/injection, schedule: Q01DX005 (ip), vehicle: other): 114 % of control
T/C (endpoint: median survival time, dose: 6.48 mg/kg/injection, schedule: Q01DX005 (ip), vehicle: other): 122 % of control

Cc1ccccc1SCCC(=O)O
T/C (endpoint: mean survival time, dose: 12.5 mg/kg/injection, schedule: Q01DX009 (ip), vehicle: saline with Tween-80): 101 % of control
T/C (endpoint: mean survival time, dose: 25.0 mg/kg/injection, schedule: Q01DX009 (ip), vehicle: saline with Tween-80): 102 % of control
T/C [9]: 101 % of control
T/C [10]: 97 % of control

CNC(C)c1ccc(C)cc1 (configuration not stated)
T/C (endpoint: mean survival time, dose: 6.25 mg/kg/injection, schedule: Q04DX003 (ip), vehicle: saline with Tween-80): 98 % of control
T/C (endpoint: mean survival time, dose: 12.5 mg/kg/injection, schedule: Q04DX003 (ip), vehicle: saline with Tween-80): 108 % of control
T/C (endpoint: mean survival time, dose: 25.0 mg/kg/injection, schedule: Q04DX003 (ip), vehicle: saline with Tween-80): 101 % of control

COc1ccc(NC(=O)Nc2ccc(F)c(Cl)c2)c(OC)c1
T/C [10]: 97 % of control
T/C [11]: 103 % of control
T/C [12]: 112 % of control

CC(=O)N(Cc1ccncc1)N=O
T/C (endpoint: mean survival time, dose: 75.0 mg/kg/injection, schedule: Q01DX001 (ip), vehicle: water): 110 % of control
T/C (endpoint: mean survival time, dose: 150.0 mg/kg/injection, schedule: Q01DX001 (ip), vehicle: water): 114 % of control
T/C (endpoint: mean survival time, dose: 300.0 mg/kg/injection, schedule: Q01DX001 (ip), vehicle: water): 116 % of control

CN(C=O)c1ccc(C(=O)NC(CCC(=O)OCc2ccccc2)C(=O)OCc2ccccc2)cc1 (configuration not stated)
T/C [10]: 94 % of control
T/C [4]: 105 % of control
T/C [11]: 89 % of control
T/C [5]: 92 % of control
T/C [12]: 89 % of control
T/C [6]: 89 % of control

Cc1c(Cl)c(Cl)c(Cl)c(Cl)c1Cl
T/C [10]: 93 % of control
T/C [11]: 93 % of control
T/C [12]: 92 % of control

O=C(NCCCCC(NC(=O)OCc1ccccc1)C(=O)ON1C(=O)CCC1=O)OCc1ccccc1 (configuration not stated)
T/C (endpoint: mean survival time, dose: 12.5 mg/kg/injection, schedule: Q01DX009 (ip), vehicle: other): 96 % of control
T/C (endpoint: mean survival time, dose: 25.0 mg/kg/injection, schedule: Q01DX009 (ip), vehicle: other): 86 % of control
T/C [13]: 90 % of control
T/C [14]: 94 % of control
T/C [15]: 97 % of control

C=CC1(O)CCCCC1
T/C [16]: 100 % of control
T/C [17]: 100 % of control
T/C [18]: 97 % of control

[Cl][Pt+2]([Cl])([Cl])[Cl].[NH-]Cc1ccccc1C[NH-]
T/C (endpoint: mean survival time, dose: 5.0 mg/kg/injection, schedule: Q04DX003 (ip), vehicle: saline with Tween-80): 110 % of control
T/C (endpoint: mean survival time, dose: 10.0 mg/kg/injection, schedule: Q04DX003 (ip), vehicle: saline with Tween-80): 118 % of control
T/C (endpoint: mean survival time, dose: 20.0 mg/kg/injection, schedule: Q04DX003 (ip), vehicle: saline with Tween-80): 120 % of control
T/C (endpoint: mean survival time, dose: 40.0 mg/kg/injection, schedule: Q04DX003 (ip), vehicle: saline with Tween-80): 86 % of control

C=C(CC(=O)O)C(=O)O (tested in a mixture with another compound)
T/C [9]: 108 % of control
T/C [10]: 120 % of control
T/C [4]: 102 % of control
T/C [11]: 105 % of control
T/C [5]: 102 % of control

O=c1oc2ccc(Cl)cc2c(Nc2ccccc2)c1Cl
T/C [16]: 93 % of control
T/C [17]: 93 % of control
T/C [18]: 90 % of control

COc1ccc(Cl)[n+]([O-])n1
T/C (endpoint: mean survival time, dose: 3.12 mg/kg/injection, schedule: Q01DX009 (ip), vehicle: Klucel (hydroxypropylcellulose) (HPC)): 94 % of control and 103 % of control
T/C (endpoint: mean survival time, dose: 6.25 mg/kg/injection, schedule: Q01DX009 (ip), vehicle: Klucel (hydroxypropylcellulose) (HPC)): 97 % of control and 101 % of control
T/C (endpoint: mean survival time, dose: 12.5 mg/kg/injection, schedule: Q01DX009 (ip), vehicle: Klucel (hydroxypropylcellulose) (HPC)): 96 % of control and 106 % of control
T/C [7]: 98 % of control and 106 % of control
T/C [8]: 94 % of control and 101 % of control
T/C (endpoint: mean survival time, dose: 100.0 mg/kg/injection, schedule: Q01DX009 (ip), vehicle: Klucel (hydroxypropylcellulose) (HPC)): 101 % of control and 104 % of control

CC1(C)C(CC(=O)O)CC1C(=O)O (configuration not stated)
T/C [10]: 98 % of control
T/C [4]: 100 % of control
T/C [11]: 98 % of control
T/C [5]: 96 % of control
T/C [6]: 100 % of control

OCC1OC(n2ncc3c(NCc4ccco4)ncnc32)C(O)C1O (configuration not stated)
T/C (endpoint: mean survival time, dose: 25.0 mg/kg/injection, schedule: Q01DX009 (ip), vehicle: water): 95 % of control
T/C (endpoint: mean survival time, dose: 50.0 mg/kg/injection, schedule: Q01DX009 (ip), vehicle: water): 95 % of control
T/C (endpoint: mean survival time, dose: 100.0 mg/kg/injection, schedule: Q01DX009 (ip), vehicle: water): 100 % of control
T/C (endpoint: mean survival time, dose: 200.0 mg/kg/injection, schedule: Q01DX009 (ip), vehicle: water): 104 % of control
T/C (endpoint: mean survival time, dose: 400.0 mg/kg/injection, schedule: Q01DX009 (ip), vehicle: water): 106 % of control

CN1CCCN(C(=S)S)CC1
T/C (endpoint: mean survival time, dose: 25.0 mg/kg/injection, schedule: Q04DX003 (ip), vehicle: saline): 98 % of control
T/C (endpoint: mean survival time, dose: 50.0 mg/kg/injection, schedule: Q04DX003 (ip), vehicle: saline): 103 % of control
T/C [1]: 103 % of control

CC(C)(CO)c1ccc(C(c2ccccc2)c2ccccc2)cc1
T/C [13]: 96 % of control
T/C [14]: 101 % of control
T/C [15]: 96 % of control

CC(C)CCCC(C)C1CCC2C3CC4OC45CC(O)CCC5(C)C3CCC12C (configuration not stated)
T/C [4]: 96 % of control
T/C [5]: 90 % of control
T/C [6]: 96 % of control

OCN(CO)c1ccc2c(c1)Cc1cc(Cl)ccc1-2
T/C [1]: 97 % of control
T/C [2]: 100 % of control
T/C [3]: 91 % of control
